Assay results taken from ChEMBL document CHEMBL3352745, “Serotonin 5-HT6 receptor antagonists for the treatment of cognitive deficiency in Alzheimer's disease” (J Med Chem, 2014).

Target: T1, 5-hydroxytryptamine receptor 6 (Homo sapiens, UniProt P50406)
T1 sequence (P50406 whole entry): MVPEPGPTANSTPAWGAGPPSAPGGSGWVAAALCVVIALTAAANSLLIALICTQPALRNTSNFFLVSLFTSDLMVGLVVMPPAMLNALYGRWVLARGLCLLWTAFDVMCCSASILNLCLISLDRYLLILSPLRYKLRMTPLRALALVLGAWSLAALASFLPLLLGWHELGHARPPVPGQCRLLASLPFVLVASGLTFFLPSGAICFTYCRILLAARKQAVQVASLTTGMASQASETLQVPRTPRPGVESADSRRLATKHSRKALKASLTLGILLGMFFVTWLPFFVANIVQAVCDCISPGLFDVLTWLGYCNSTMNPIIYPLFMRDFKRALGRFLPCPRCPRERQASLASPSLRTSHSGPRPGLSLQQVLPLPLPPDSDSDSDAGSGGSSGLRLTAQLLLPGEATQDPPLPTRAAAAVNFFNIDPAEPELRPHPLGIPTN
Experiment: Antagonist activity at human recombinant 5HT6 receptor expressed in CHO cells
Type: cell-based
Conditions: not given
Molecule `CN1CC=C(c2cn(S(=O)(=O)c3cccc4ccccc34)c3ccc(F)cc23)CC1` has a Ki of 1 nM. `COc1ccc(NS(=O)(=O)c2ccc(I)cc2)cc1N1CCNCC1` gave a Ki of 2.3 nM. `O=S(=O)(c1cccc(Cl)c1)n1ccc2c(N3CCNCC3)c(Cl)ccc21` showed a Ki of 0.3 nM. For `O=S(=O)(Nc1ccc2c(c1)CNCCC2)c1csc(C(F)(F)F)c1-c1ccccc1`, the Ki was 32 nM. With `COc1ccc(Cl)cc1NS(=O)(=O)c1ccc(OC)c2c1CC[C@H](N(C)C)C2` the Ki was 1.7 nM. With `Fc1ccc2c(c1)c(C1=CCNCC1)cn2Cc1ccccc1` the Ki was 10 nM. For `O=C(c1ccccc1)n1cc(C2=CCNCC2)c2cc(F)ccc21`, the Ki was 99 nM. `O=C(Nc1ccccc1)n1cc(C2=CCNCC2)c2cc(F)ccc21` gave a Ki of 118 nM. Work on `CN1CCN(c2cccc3c(S(=O)(=O)c4ccccc4)c[nH]c23)CC1` yielded a Ki of 0.5 nM. In the case of `O=S(=O)(c1cccc(F)c1)c1c[nH]c2c(OCCN3CCCC3)cccc12`, the Ki is reported as 20 nM. For `CN1CCC(c2cn(C)c3cc(OS(=O)(=O)c4c(F)cccc4F)ccc23)CC1`, the Ki was 1 nM. With `Cc1cc(C)cc(S(=O)(=O)c2ccc3ccnc(N4CCNCC4)c3c2)c1` the Ki was 11 nM. With `CSc1nn2c(N3CCNCC3)nc(C)nc2c1S(=O)(=O)c1ccccc1` the Ki was 1.2 nM. Work on `O=c1n(C2=CCNCC2)c2ccccc2n1S(=O)(=O)c1ccc2ccccc2c1` yielded a Ki of 5.7 nM. With `O=S(=O)(c1cccc(Cl)c1Cl)N1CCc2c(cccc2N2CCNCC2)C1` the Ki was 0.04 nM. For `COc1ccc(C)cc1S(=O)(=O)Nc1cc(OC2CCNCC2)c2occc2c1`, the Ki was 1.2 nM. `O=S(=O)(c1ccccc1)c1ccc2c(c1)OCCC2N1CCNCC1` (stereo unspecified) gave a Ki of 0.4 nM. `CNC[C@@H]1COc2ccc(S(=O)(=O)c3ccccc3)cc2O1` showed a Ki of 0.2 nM. With `O=S(=O)(c1ccccc1)c1ccc(C2CCNCC2)c2ccccc12` the Ki was 3.8 nM. In the case of `N=C(N)CCC1CCCc2cc(S(=O)(=O)c3ccccc3)ccc21` (stereo unspecified), the Ki is reported as 59 nM. With `CN1CCCC1Cc1c[nH]c2ccc(OC3CCCCC3)cc12` (stereo unspecified) the Ki was 0.93 nM. Work on `COc1cc(N2CCNCC2)c2ncc(C)c(Oc3ccccc3)c2c1` yielded a Ki of 1 nM. Molecule `COc1cc(Cn2c(=O)ccc3cccc(OC)c32)cc(N2CCNCC2)c1` has a Ki of 0.9 nM. With `O=C1COc2c(N3CCNCC3)cccc2N1Cc1ccccc1` the Ki was 0.2 nM. For `O=C1c2cccc(N3CCNCC3)c2Oc2ccc(F)cc2N1Cc1cccc(C(F)(F)F)c1`, the Ki was 0.3 nM. In the case of `O=c1[nH]c2c(N3CCNCC3)cccc2n1Cc1ccccc1`, the Ki is reported as 0.3 nM. `Clc1ccc(-c2[nH]c3ccccc3c2/C=N/NC2=NCCN2)cc1` gave a Ki of 10 nM. In the case of `CC(Nc1ccc2c(c1)CCNCC2)c1ccccc1Cl` (stereo unspecified), the Ki is reported as 14 nM. With `Cc1c(S(=O)(=O)Nc2cc3c(c(N4CCN(C)CC4)c2)OCC3)sc2ccc(Cl)cc12` the Ki was 1.6 nM. Molecule `CN1CC2c3ccccc3Oc3ccc(Cl)cc3C2C1` (stereo unspecified) [ASENAPINE] has a Ki of 0.25 nM.

Target: T1, 5-hydroxytryptamine receptor 6
Experiment: Inhibition of human recombinant 5HT6 receptor expressed in CHO cells
Type: cell-based
Conditions: not given
With `CN1CC=C(c2cn(S(=O)(=O)c3cccc4ccccc34)c3ccc(F)cc23)CC1` the IC50 was 24 nM. `Nc1ccc(S(=O)(=O)c2cc(Br)nc(N3CCCC3)c2)cc1` showed an IC50 of 3.2 nM. `COc1ccc(NS(=O)(=O)c2ccc(Br)cc2)cc1N1CCN(C)CC1` gave an IC50 of 16 nM. For `CN1CCC[C@@H]1Cc1cn(S(=O)(=O)c2ccccc2)c2ccc(Cl)cc12`, the IC50 was 8.5 nM.

System: not listed separately
Experiment: Half life in rat
Type: ADME, organism-based
Conditions: in vivo
`COc1ccc(NS(=O)(=O)c2sc3ccc(Cl)cc3c2C)cc1N1CCNCC1` gave a half-life of 288 min.

System: not listed separately
Experiment: Oral bioavailability in rat
Type: ADME, organism-based
Conditions: in vivo
For `CN1CC=C(c2cn(S(=O)(=O)c3cccc4ccccc34)c3ccc(F)cc23)CC1`, the bioavailability was 19%. For `CN1CCC[C@@H]1Cc1cn(S(=O)(=O)c2ccccc2)c2ccc(Cl)cc12`, the bioavailability was 17%. In the case of `COc1ccc(NS(=O)(=O)c2sc3ccc(Cl)cc3c2C)cc1N1CCNCC1`, the bioavailability is reported as greater than 80%. Molecule `O=S(=O)(c1ccccc1)c1cnc2c(N3CCNCC3)cccc2c1` [INTEPIRDINE] has a bioavailability of 76%.

System: not listed separately
Experiment: Ratio of drug level in brain to plasma in rat
Type: ADME
Conditions: brain and plasma, read-out: BPR
In the case of `CN1CC=C(c2cn(S(=O)(=O)c3cccc4ccccc34)c3ccc(F)cc23)CC1`, the Kp is reported as 43. In the case of `CN1CCC[C@@H]1Cc1cn(S(=O)(=O)c2ccccc2)c2ccc(Cl)cc12`, the Kp is reported as 23.
